The record followed here is US20070190520A1, “METHOD OF CHARACTERIZING A BIOLOGICALLY ACTIVE COMPOUND” (priority 2006, published 2007).

In this data set the test system is Adult stem cells from peripheral blood (CD34+/CD38−). Kind of data set: viability and cell number of peripheral blood stem cells expanded in a rotatable TVEMF bioreactor (Example 4). The settings on record: 20 ppm added at initiation, end of 14 days, Sample 2 cells from an individual with known liver damage. The format is cell-based.

The structures appear in SMILES notation.

Experimental: The rotatable bioreactor may preferably be filled with culture medium consisting of Isocove's modified Dulbecco's medium (IMDM) (GIBCO, Grand Island N.Y.), supplemented with 5% human albumin, 100 ng/ml recombinant human G-CSF (Amgen Inc., Thousand Oaks, Calif.), and 100 ng/ml recombinant human stem cell factor (SCF) (Amgen). In addition, D-Penicillamine [D(−)-2-Amino-3-mercapto-3-methylbutonoic acid] (Sigma-Aldrich) a copper chelating agent, dissolved in DMSO, may preferably be introduced to the culture medium in the rotatable bioreactor in an amount of 10 ppm. Adult stem cells from peripheral blood (CD34+/CD38−) may preferably be placed in the culture chamber of the rotatable bioreactor at a concentration of 0.75×10^6 cells/ml.
Two samples of peripheral blood stem cells should preferably be prepared by this method. Sample 1 should preferably be from an individual with no known liver damage. Sample 2 should preferably be from an individual with known liver damage. The samples should be prepared as above and placed in two different rotatable bioreactors under the conditions noted in Example 1 and at the same concentrations.

Regarding `CC(=O)Nc1ccc(O)cc1` [acetaminophen], the “viability and number of cells counted” value is “neither die nor grow, but rather, remain unchanged”.
